Assay results from article PMC4148167 (Journal of Medicinal Chemistry, 2014).
Values after ≈ are worked out from the molar mass of the structure shown.

What was measured:
[1] = kinetic solubility; type: physicochemical; details: normal saline, pH 7.4
[2] = biological target: T1, Mer (Homo sapiens, UniProt Q12866); test: pharmacodynamic study: Mer phosphorylation in bone marrow leukemia cells in vivo; set-up: species or system NOD/SCID/gamma mice with 697 human leukemia xenografts; details: single 3 mg/kg oral dose, 30 min after dosing
T1 sequence (Q12866 21-999): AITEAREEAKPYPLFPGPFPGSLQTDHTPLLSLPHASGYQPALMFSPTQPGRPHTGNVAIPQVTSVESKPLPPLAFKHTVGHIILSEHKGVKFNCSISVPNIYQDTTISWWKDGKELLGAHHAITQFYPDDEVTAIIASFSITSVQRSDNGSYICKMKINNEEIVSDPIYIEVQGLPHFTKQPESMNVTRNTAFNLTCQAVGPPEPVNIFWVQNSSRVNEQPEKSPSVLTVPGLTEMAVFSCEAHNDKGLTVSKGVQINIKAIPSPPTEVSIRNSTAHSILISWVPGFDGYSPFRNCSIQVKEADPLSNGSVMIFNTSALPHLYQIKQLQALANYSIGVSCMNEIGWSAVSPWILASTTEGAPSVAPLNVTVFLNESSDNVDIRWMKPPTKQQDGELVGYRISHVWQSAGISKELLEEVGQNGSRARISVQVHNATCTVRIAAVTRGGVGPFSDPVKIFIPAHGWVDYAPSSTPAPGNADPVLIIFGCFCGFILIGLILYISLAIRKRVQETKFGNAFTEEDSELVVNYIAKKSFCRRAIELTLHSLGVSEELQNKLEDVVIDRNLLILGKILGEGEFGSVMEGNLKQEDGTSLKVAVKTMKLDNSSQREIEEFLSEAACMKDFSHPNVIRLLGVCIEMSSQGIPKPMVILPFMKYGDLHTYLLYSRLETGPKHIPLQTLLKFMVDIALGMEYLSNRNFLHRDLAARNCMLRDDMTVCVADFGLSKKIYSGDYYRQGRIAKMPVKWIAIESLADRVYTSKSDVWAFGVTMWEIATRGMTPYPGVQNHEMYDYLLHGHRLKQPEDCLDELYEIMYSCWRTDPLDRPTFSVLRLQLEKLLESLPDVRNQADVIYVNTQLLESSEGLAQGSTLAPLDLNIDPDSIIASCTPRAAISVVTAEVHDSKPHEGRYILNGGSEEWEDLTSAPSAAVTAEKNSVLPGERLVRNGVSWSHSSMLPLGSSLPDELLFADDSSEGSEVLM

[3] = system: 305 kinases; test: Carna Biosciences kinome profile at 100 nM; type: biochemical; details: in duplicate
[4] = system: A549 NSCLC cells; test: soft agar colony formation, A549; type: cell-based; details: 2 weeks, negative control 20 at 300 nM
[5] = system: Molm-14 AML cells; test: soft agar colony formation, Molm-14; type: cell-based; details: 2 weeks, negative control 20 at 50 nM

Row | solubility kinetic [1] | decrease of Mer phospho-protein levels in bone marrow leukemia cells [2] | SMILES | number of kinases inhibited by more than 50% [3] | effect on colony formation in soft agar, A549 NSCLC [4] | effect on colony formation in soft agar, Molm-14 AML [5]
1 | 38 µg/mL (≈ 79.7 µM) | greater than 90% | CCCCNc1ncc2c(-c3ccc(CN4CCN(C)CC4)cc3)cn([C@H]3CC[C@H](O)CC3)c2n1 [Compound 11] | Sixty-six | significant inhibition of colony formation | significant inhibition of colony formation
2 | – | – | CCCCN(C)c1ncc2c(-c3ccc(CN4CCN(C)CC4)cc3)cn([C@H]3CC[C@H](O)CC3)c2n1 [Compound 20] | – | no significant effect | no significant effect
